The target in series [1] is T1, ETA receptor variant I355A (Homo sapiens, UniProt P25101, I355A). The experiment in a line: cell-based.
For series [2], the target named is T2, wildtype ETA receptor (Homo sapiens, UniProt P25101).
Series [3] has as its target T3, ETA receptor variant R326Q (Homo sapiens, UniProt P25101, R326Q).
For series [4], the target named is T1, ETA receptor variant I355A.
The target of series [5] is T4, ETA receptor variant L322A (Homo sapiens, UniProt P25101, L322A).
Series [6] has as its target T4, ETA receptor variant L322A. The experiment in a line: cell-based.
Series [7] can be described thus: physchem.
Series [8] concerns the target T3, ETA receptor variant R326Q. The experiment in a line: cell-based.
Series [9] has as its target T5, ETA receptor (Homo sapiens, UniProt P25101). The series can be described thus: cell-based.
Series [10] concerns the target T2, wildtype ETA receptor. The series can be described thus: cell-based.
Series [11] addresses T6, ETA receptor variant D351N (Homo sapiens, UniProt P25101, D351N).
The conditions of series [12]: cited from earlier work.
Series [13] has as its target T7, ETA receptor variant K329M (Homo sapiens, UniProt P25101, K329M).
The conditions of series [14]: cited from earlier work. The source holds these as a separate data set.
Series [15] concerns the target T5, ETA receptor. The conditions noted are these: cited from earlier work; for ETA receptor occupancy half-life (t1/2): PASMC.
Series [16] deals with T6, ETA receptor variant D351N. The experiment in a line: cell-based.
Series [17] deals with T7, ETA receptor variant K329M. The series can be described thus: cell-based.
Series [18] deals with T8, ETA receptor variant Q165A (Homo sapiens, UniProt P25101, Q165A). The experiment in a line: cell-based.
T8 sequence (P25101 21-427 Q165A): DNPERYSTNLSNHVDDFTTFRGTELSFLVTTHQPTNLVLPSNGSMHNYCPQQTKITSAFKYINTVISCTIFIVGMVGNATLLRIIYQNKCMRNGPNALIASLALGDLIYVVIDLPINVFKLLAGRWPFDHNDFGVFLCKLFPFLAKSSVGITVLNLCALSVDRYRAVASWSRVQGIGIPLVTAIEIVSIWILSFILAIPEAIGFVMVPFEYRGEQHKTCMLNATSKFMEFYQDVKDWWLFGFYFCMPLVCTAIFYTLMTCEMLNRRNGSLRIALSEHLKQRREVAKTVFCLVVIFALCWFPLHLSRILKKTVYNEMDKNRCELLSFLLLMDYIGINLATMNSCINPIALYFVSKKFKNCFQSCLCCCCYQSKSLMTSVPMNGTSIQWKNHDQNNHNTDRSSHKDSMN
For series [19], the target named is T8, ETA receptor variant Q165A.
The target of series [20] is T5, ETA receptor. The conditions noted are these: PASMC, 5 µM ET-1, 20 min stimulation, maximal ERA concentration 1 µM, arithmetic means, normalized to macitentan analogs 1 or 8 (100%).
Setting [21] is: pKa1, no method or reference printed.
Where [22] appears, read: pKa2, no method or reference printed.

Read-outs that look alike come from different tables or passages of the source. Square brackets hold non-standard residues; d marks the D form. Peptide text beside a SMILES is read from it.

The term IC50 denotes the concentration that gives 50% inhibition. Usually pKa stands for the negative logarithm of the acid dissociation constant. As usually defined, the logD is the decadic logarithm of the distribution of all forms, ionised or not, between an organic phase and buffer at a given pH.

T7 sequence (P25101 21-427 K329M): as the sequence (P25101 21-427 Q165A) above, with A145Q, K309M counted along it
T2 sequence (P25101 21-427): as the sequence (P25101 21-427 Q165A) above, with A145Q counted along it
T5 sequence (P25101 21-427): as the sequence (P25101 21-427 Q165A) above, with A145Q counted along it
T3 sequence (P25101 21-427 R326Q): as the sequence (P25101 21-427 Q165A) above, with A145Q, R306Q counted along it
T6 sequence (P25101 21-427 D351N): as the sequence (P25101 21-427 Q165A) above, with A145Q, D331N counted along it
T4 sequence (P25101 21-427 L322A): as the sequence (P25101 21-427 Q165A) above, with A145Q, L302A counted along it
T1 sequence (P25101 21-427 I355A): as the sequence (P25101 21-427 Q165A) above, with A145Q, I335A counted along it

Consider `COc1ccccc1Oc1c(NS(=O)(=O)c2ccc(C(C)C)cn2)nc(-c2ccnc(-c3nnn[nH]3)c2)nc1OCCO` [tezosentan], for which the IC50 was 14 nM in [1]; 0.53 nM in series [6]; 13 nM in series [8]; 5.2e-11 M in series [9]; 0.26 nM in series [10]. The “IC50 shift versus wildtype (fold)” value in [2] is 1 fold; in [3] it was 50 fold; in [4] it was 54 fold; in [5], 2.0 fold. The pKa in series [7] (setting [21]) was 4.4; in series [7] (setting [22]) it was 4.1.
Consider `CCCNS(=O)(=O)Nc1ncnc(OCCOc2ncc(OC)cn2)c1-c1ccc(Br)cc1` [macitentan analog 7], for which the 50% inhibitory concentration (IC50) in series [1] turned out to be 45 nM; in series [6], 2690 nM; in [8], 268 nM; in [9], 3.9e-09 M; in series [10], 41 nM. Further, the “IC50 shift versus wildtype (fold)” value is on record as 1 fold in series [2], 6.5 fold in series [3], 1.1 fold in [4] and 66 fold in [5].
In the case of `CCNS(=O)(=O)Nc1ncnc(OCCOc2ncc(Br)cn2)c1-c1ccc(Br)cc1` [macitentan analog 2], the IC50 in [1] stood at 3.9 nM; in series [6], 1090 nM; in series [8], 34 nM; in [9], 5.1e-10 M; in [10], 4.8 nM. For the same compound, the “IC50 shift versus wildtype (fold)” value in [2] was found to be 1 fold; in [3] it was 7.1 fold; in [4], 0.8 fold; in series [5] it was 228 fold.
`COC(c1ccccc1)(c1ccccc1)[C@H](Oc1nc(C)cc(C)n1)C(=O)O` [ambrisentan]: the IC50 in series [1] was 8.1 nM; in series [6], 41 nM; in series [16], 4.5 nM; in [17] it was 0.58 nM; in series [18] it was 3160 nM; in [8], 887 nM. In addition, the IC50 in [9] came to 4.4e-10 M; in series [10], 2.8 nM. Moreover, the “IC50 shift versus wildtype (fold)” value in series [11] was 1.6 fold; in [2], 1.0 fold; in series [3], 317 fold; in series [4], 2.9 fold; in series [5], 15 fold; in series [13], 0.2 fold. Also, the “IC50 shift versus wildtype (fold)” value in series [19] turned out to be 1129 fold. The pKa in series [12] was 3.5. For the same compound, in series [14], the logD is given as −0.4. Also, the “ETA receptor occupancy half-life (t1/2)” value in [15] is listed as 1 min.
Compound `CCCNS(=O)(=O)Nc1ncnc(OCCOc2ncc(I)cn2)c1-c1ccc(Br)cc1` [macitentan analog 8] came in with an IC50 in [9] of 6.5e-11 M.
`CCCNS(=O)(=O)Nc1ncnc(OCCOc2ncc(Br)cn2)c1-c1ccc(Br)cc1` [macitentan, N-[5-(4-bromophenyl)-6-[2-[(5-bromo-2-pyrimidinyl)oxy]ethoxy]-4-pyrimidinyl]-N′-propylsulfamide]: the IC50 in [1] came to 1.1 nM; in series [6] it was 178 nM; in [16] it was 1.5 nM; in series [17], 0.58 nM; in series [18], 209 nM; in series [8], 7.6 nM. Moreover, the IC50 in series [9] was 1.7e-10 M; in series [10], 1.2 nM. For the same compound, the “IC50 shift versus wildtype (fold)” value in [11] is 1.2 fold; in series [2], 1.0 fold; in series [3], 6.3 fold; in series [4], 0.9 fold; in [5], 148 fold; in [13], 0.5 fold. Also, the “IC50 shift versus wildtype (fold)” value in [19] turned out to be 174 fold. Further, the logD in series [14] is 2.9. In [15], the “ETA receptor occupancy half-life (t1/2)” value is listed as around 17 min. The “increase of receptor occupancy half-life compared to ambrisentan and bosentan” value in series [15] (human primary PASMC) is around 20 fold. Also, the “Insurmountability (%)” value in [20] is reported as 64%.
The compound `CCCNS(=O)(=O)Nc1ncnc(OCCCCOc2ncc(Br)cn2)c1-c1ccc(Br)cc1` [macitentan analog 12] returned an IC50 in [9] of 2.55e-07 M.
`CCCS(=O)(=O)Nc1ncnc(OCCOc2ncc(Br)cn2)c1-c1ccc(Br)cc1` [macitentan analog 5] came in with a 50% inhibitory concentration (IC50) in series [9] of 3.8e-10 M.
On to `CCCNS(=O)(=O)Nc1ncnc(OCCOc2ncc(Br)cn2)c1-c1ccc(Cl)cc1` [macitentan analog 9], for which the half-maximal inhibitory concentration (IC50) in series [1] worked out at 8.6 nM; in series [6], 1900 nM; in series [8], 46 nM; in [9], 4.7e-10 M; in series [10], 14 nM. In addition, the “IC50 shift versus wildtype (fold)” value was 1 fold in series [2], 3.3 fold in series [3], 0.6 fold in [4] and 136 fold in [5].
Compound `CCCNS(=O)(=O)Nc1ncnc(OCCOc2ccc(Br)cc2)c1-c1ccc(Br)cc1` [macitentan analog 10] displayed a half-inhibitory concentration (IC50) in series [9] of 4.31e-07 M.
On the same count and under the same terms, to `CCCNS(=O)(=O)Nc1ncnc(OCCCOc2ncc(Br)cn2)c1-c1ccc(Br)cc1` [macitentan analog 11] belongs 3.5e-08 M; to `O=S(=O)(NCc1ccccc1)Nc1ncnc(OCCOc2ncc(Br)cn2)c1-c1ccc(Br)cc1` [macitentan analog 3], 8.5e-11 M.
With `COc1ccccc1Oc1c(NS(=O)(=O)c2ccc(C)cn2)nc(-c2ccnc(-c3nnn[nH]3)c2)nc1OCCO` [clazosentan], the IC50 was 2.7 nM in series [1]; 0.1 nM in series [6]; 2.2 nM in series [8]; 3.3e-11 M in series [9]; 0.085 nM in series [10]. Further, the “IC50 shift versus wildtype (fold)” value in series [2] was 1 fold; in series [3], 26 fold; in series [4], 32 fold; in series [5], 1.2 fold. The pKa stood at 4.5 in series [7] (setting [21]) and 3.3 in [7] (setting [22]).
On to `COc1ccccc1Oc1c(NS(=O)(=O)c2ccc(C(C)(C)C)cc2)nc(-c2ncccn2)nc1OCCO` [bosentan], for which the pKa in series [12] is recorded as 5.1. Besides, the logD in [14] was 1.3. In addition, in [20], the “Insurmountability (%)” value was 0%.
`CCS(=O)(=O)Nc1ncnc(OCCOc2ncc(Br)cn2)c1-c1ccc(Br)cc1` [macitentan analog 4] came in with an IC50 in series [9] of 1.2e-09 M.
`CC(C)C[C@@H]1NC(=O)[C@@H](C(C)C)NC(=O)[C@@H]2CCCN2C(=O)[C@@H](CC(=O)O)NC(=O)[C@@H](Cc2c[nH]c3ccccc23)NC1=O` [BQ123] (cyclo(L[dW][dD]P[dV])): the half-inhibitory concentration (IC50) in series [9] (log IC50 (M), calcium flux, PASMC, 4 nM–[…] nM ET-1 (EC80)) was 1.26e-09 M.
Compound `CCCCS(=O)(=O)Nc1ncnc(OCCOc2ncc(Br)cn2)c1-c1ccc(Br)cc1` [macitentan analog 6] yielded an IC50 in series [9] of 6.2e-10 M.
Regarding `CCCCNS(=O)(=O)Nc1ncnc(OCCOc2ncc(Br)cn2)c1-c1ccc(Br)cc1` [macitentan analog 1], the concentration for half-maximal inhibition (IC50) in series [1] turned out to be 0.047 nM; in series [6] it was 32 nM; in series [8], 1.2 nM; in series [9], 9.3e-11 M; in series [10], 0.17 nM. Further, the “IC50 shift versus wildtype (fold)” value is 1 fold in series [2], 7.1 fold in series [3], 0.3 fold in series [4] and 188 fold in series [5].

The values above are taken from paper PMC4166607, “Distinct ETA Receptor Binding Mode of Macitentan As Determined by Site Directed Mutagenesis” (PLoS ONE, 2014).
